The source of these data is PubChem BioAssay (NCI).

Test in all cases: DTP human tumour cell line panel, 48 h
Assay [1] relates to ACHN renal.
The test system of assay [2] is EKVX NSCLC.
For assay [3], the system named is HCT-15 colon.
Assay [4] has as its system IGROV1 ovarian.
The test system of assay [5] is MCF7 breast.
The subject of assay [6] is NCI-H522 lung.
Assay [7] relates to SF-295 CNS.
The test system of assay [8] is SR leukemia.
For assay [9], the system named is UACC-62 melanoma.
In assay [10] the test system is SNB-75 CNS.

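Cultured in 96-well plates, cells were exposed to test compound for 48 hours across five concentrations. At the GI50, growth is halved. TGI marks complete inhibition of growth.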 Where only a bound is given, the exact number is not on record here.

As usually defined, the GI50 is the concentration that inhibits growth by half. As usually defined, the TGI is the concentration giving total growth inhibition. Low readings indicate more potent growth arrest, high ones less potent growth arrest. For the compound `COc1ccc(C(=O)/C=C/c2ccc(Cl)cc2)cc1S(N)(=O)=O`, the GI50 in assay [1] was 1.94 µM; in assay [2], 4.56 µM; in [3], 2.14 µM; in [4], 2.67 µM; in [5], 1.3 µM; in [6], 1.93 µM. Besides, the GI50 in assay [7] was 3.04 µM; in [8], 0.865 µM; in [9] it was 4.88 µM. Besides, the TGI in [1] stood at 4.12 µM; in assay [2], 18.4 µM; in assay [3], 10.6 µM; in assay [4], 8.34 µM; in assay [5] it was 6.77 µM; in [6], 4.51 µM. Also, the TGI in assay [7] worked out at 10.2 µM; in assay [8], 6.86 µM; in assay [9] it was 17.5 µM.

For `COc1ccc(CN2CCc3c(Cl)nc(N)nc3C2=O)c(OC)c1`, the GI50 in assay [1] was 20.4 µM; in [2], 16.8 µM; in [3], 10.4 µM; in assay [4] it was 7.56 µM; in [5], 15.7 µM; in assay [6], 12.7 µM. The GI50 in assay [7] was 40.3 µM; in [10], 14.4 µM; in assay [8], 1.03 µM; in [9], 13.5 µM. For the same compound, the TGI in [1] was 48.5 µM; in assay [2], 61.7 µM; in assay [3], 24.3 µM; in assay [4] it was 26.9 µM; in assay [5], 61.3 µM; in assay [6] it was 30.9 µM. Moreover, the TGI was above 100 µM in [7], 32.7 µM in [10], 10.7 µM in assay [8] and 27.6 µM in assay [9].

`CC/C(=C(\c1ccccc1)c1ccc(OCCN(C)C)cc1)c1ccccc1`: the GI50 in [2] was 4.74 µM; in assay [3] it was 2.01 µM; in assay [4], 4.44 µM; in assay [5], 1.12 µM; in assay [6], 1.42 µM; in [8], 1.82 µM. In addition, in [9], the GI50 was 1.75 µM.

Regarding `CC(=O)O[C@@H]1C=CC(=O)C2(CC(=O)O[C@@H]2/C=C(\C)CCC=C(C)C)C1` (some centres undefined), the GI50 is 1.16 µM in assay [1]; 3.28 µM in [2]; 0.285 µM in assay [3]; 0.965 µM in assay [4]; 0.0772 µM in assay [5]; 0.988 µM in assay [6]. Moreover, the GI50 in assay [7] was 1.75 µM; in assay [10], 1.33 µM; in assay [8] it was 0.0339 µM; in assay [9] it was 1.12 µM. The TGI came to 2.43 µM in assay [1]; 7.87 µM in [2]; 1.28 µM in assay [3]; 2.47 µM in [4]; 0.599 µM in assay [5]; 4.07 µM in assay [7]. Moreover, the total growth inhibition concentration (TGI) in [10] turned out to be 2.83 µM; in [8], 31.6 µM; in [9], 2.36 µM.

Take `CCN1CCC(C(=O)Nc2n[nH]c3nnc(-c4cccc(F)c4F)cc23)CC1`: the GI50 in [1] was 9.68 µM; in [2], 16.9 µM; in [3] it was above 25 µM; in [4] it was above 21.4 µM; in assay [5], 2.2 µM; in [6] it was 6.68 µM. Further, the GI50 is 5.73 µM in assay [7], 0.821 µM in assay [10], 9.61 µM in assay [8] and 10.2 µM in assay [9]. Besides, the TGI in assay [1] was above 25 µM; in assay [2] it was above 25 µM; in assay [3], above 25 µM; in assay [4], above 25 µM; in [5] it was above 12.8 µM; in [6], above 17 µM. Further, the TGI is above 25 µM in [7], above 19.3 µM in assay [10], above 25 µM in [8] and above 25 µM in [9].

On to `O=c1c(Cl)nsnc1Cl`, for which the TGI in [1] is 14.7 µM; in assay [2], 58.2 µM; in assay [3], 51.1 µM; in assay [4], 32.4 µM; in assay [5] it was 31.5 µM; in assay [6], 3.81 µM. The TGI in assay [7] is 40.8 µM; in assay [10] it was above 53.1 µM; in assay [8], 4.43 µM; in assay [9], 33.4 µM.

As for `COc1c(O)c2ccccc2c2cc(O)ccc12`, the TGI in assay [1] stood at 14.5 µM; in assay [2], 32.9 µM; in assay [3], 20.1 µM; in assay [4], 21.6 µM; in [5] it was 8.22 µM; in assay [6], 15.7 µM. Moreover, the TGI in assay [7] was 23.5 µM; in [10] it was 22.7 µM; in assay [8], above 68.4 µM; in [9], 6.1 µM.

For the compound `O=C(CCCCCCc1nc2ccc(Br)cc2[nH]1)NO`, the GI50 is 0.671 µM in assay [1]; 1.55 µM in assay [2]; 1.69 µM in assay [3]; 0.523 µM in assay [4]; 0.425 µM in assay [5]; 0.134 µM in assay [6]. Moreover, the GI50 in assay [7] was 0.471 µM; in assay [10], 0.419 µM; in [8], 0.148 µM; in assay [9], 0.189 µM. The TGI in [1] is 3.41 µM; in assay [2] it was 97.1 µM; in [3] it was above 86.5 µM; in assay [4], 2.45 µM; in assay [5], above 100 µM; in assay [6], 0.859 µM. Further, the TGI in [7] is 2.84 µM; in assay [10], above 100 µM; in assay [8], above 100 µM; in assay [9], 1.17 µM.

For `Cc1ccc(CCC(=O)Nc2ncc(Cc3cc(Cl)ccc3Cl)s2)o1`, the GI50 is 0.665 µM in assay [1]; 0.466 µM in assay [2]; 0.0546 µM in assay [3]; 0.334 µM in [4]; 0.0439 µM in assay [5]; 0.229 µM in assay [6]. For the same compound, the GI50 was 0.176 µM in assay [7], 0.206 µM in assay [10], 0.0557 µM in assay [8] and 0.24 µM in [9]. In addition, the TGI in [1] was 4.85 µM; in assay [2], above 100 µM; in [3], above 100 µM; in [4], 20.8 µM; in assay [5], above 100 µM; in assay [6], 12.9 µM. Also, the TGI in assay [7] is 2.15 µM; in [10], 2.16 µM; in [8], 18.9 µM; in assay [9] it was above 100 µM.
